“Also recorded” adds a separate entry of the source. *1 amine or outer side, *2 acyl side, *3 side chain or, on linkers, in order; H or OH if unused. Where a SMILES comes first, the peptide text is derived from it. [ ]: non-standard residue; d: D form. X1 = O=C([C@H]1CCC[C@@H]1N[*:1])[*:2]; X2 = O=C([C@H]1CNC[C@@H]1N[*:1])[*:2]; Aib = CC(C)(N)C(=O)O
Tests used:
human GLP-1R [1] = biological target: T1, human GLP-1R (Homo sapiens, UniProt P43220); assay: β-Arrestin-2 recruitment BRET assay; conditions: for β-arrestin-2 recruitment, result in words: FlpInCHO BRET, native β-arrestin-2; for Emax: read-out: β-Arrestin-2 Emax
human GLP-1R [2] = biological target: T1, human GLP-1R; assay: cAMP accumulation in GLP-1R FlpInCHO cells; format: cell-based; conditions: Flp-In-CHO, read-out: cAMP Emax
human GLP-1R [3] = assay: Stimulus bias, operational model of agonism, Δlog; format: cell-based; conditions: bias relative to GLP-1; FlpInCHO; mean ± SEM, three to four experiments
human GLP-1R [4] = biological target: T1, human GLP-1R; assay: Radioligand competition binding on whole GLP-1R FlpInCHO cells; conditions: GLP-1R in FlpIn CHO cells
human GLP-1R [5] = biological target: T1, human GLP-1R; assay: Intracellular calcium mobilization; format: cell-based; conditions: for Emax: read-out: iCa2+ Emax
human GLP-1R [6] = biological target: T1, human GLP-1R; assay: ERK1/2 phosphorylation; format: cell-based; conditions: read-out: pERK1/2 Emax
human GLP-1R [7] = biological target: T1, human GLP-1R; assay: β-Arrestin-1 recruitment BRET assay; conditions: for Emax: read-out: β-Arrestin-1 Emax
human GLP-1R [8] = conditions: FlpIn CHO cells; cited from earlier work

T1 sequence (P43220 24-463): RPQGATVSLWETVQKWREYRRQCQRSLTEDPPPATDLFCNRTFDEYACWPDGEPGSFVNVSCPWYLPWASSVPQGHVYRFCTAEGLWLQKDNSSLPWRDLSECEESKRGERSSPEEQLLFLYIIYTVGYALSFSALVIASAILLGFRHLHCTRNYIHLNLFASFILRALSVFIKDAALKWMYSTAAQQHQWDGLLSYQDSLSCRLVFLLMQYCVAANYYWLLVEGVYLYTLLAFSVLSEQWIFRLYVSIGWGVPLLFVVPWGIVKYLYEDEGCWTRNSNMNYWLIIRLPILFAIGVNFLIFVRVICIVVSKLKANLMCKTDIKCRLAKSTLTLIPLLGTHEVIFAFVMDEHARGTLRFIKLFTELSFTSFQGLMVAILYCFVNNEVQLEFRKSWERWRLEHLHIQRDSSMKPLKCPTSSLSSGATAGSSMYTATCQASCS

Compound | β-arrestin-2 recruitment, result in words (human GLP-1R [1]) | Emax (human GLP-1R [2]) [%] | Emax (human GLP-1R [6]) [%] | Emax (human GLP-1R [5]) [%] | Δlog(τ/KA) βArr1 vs pERK1/2 (human GLP-1R [3]) | Δlog(τ/KA) Ca2+ vs cAMP (human GLP-1R [3]) | Δlog(τ/KA) pERK1/2 vs cAMP (human GLP-1R [3]) | Δlog(τ/KA) βArr2 vs cAMP (human GLP-1R [3]) | Δlog(τ/KA) βArr2 vs pERK1/2 (human GLP-1R [3]) | other results
CC[C@H](C)[C@H](NC(=O)[C@H](Cc1ccccc1)NC(=O)[C@H](CCC(=O)O)NC(=O)[C@H]1CNC[C@@H]1NC(=O)[C@H](C)NC(=O)[C@H](C)NC(=O)[C@H](CCC(N)=O)NC(=O)CNC(=O)[C@H](CCC(=O)O)NC(=O)[C@H](CC(C)C)NC(=O)[C@H](Cc1ccc(O)cc1)NC(=O)[C@H](CO)NC(=O)[C@H](CO)NC(=O)[C@@H](NC(=O)[C@H](CC(=O)O)NC(=O)[C@H](CO)NC(=O)[C@@H](NC(=O)[C@H](Cc1ccccc1)NC(=O)[C@@H](NC(=O)CNC(=O)[C@H](CCC(=O)O)NC(=O)[C@H](C)NC(=O)[C@@H](N)Cc1c[nH]cn1)[C@@H](C)O)[C@@H](C)O)C(C)C)C(=O)N[C@H]1CCC[C@@H]1C(=O)N[C@@H](Cc1c[nH]c2ccccc12)C(=O)N[C@@H](CC(C)C)C(=O)N[C@H](C(=O)N[C@H]1CNC[C@@H]1C(=O)NCC(=O)N[C@@H](CCCNC(=N)N)C(=O)NCC(N)=O)C(C)C [P1] (H-HAEGTFTSDVSSYLEGQAA[X2]EFI[X1]WLV[X2]GRG-NH2) |  |  | 112 ± 8 | 89 ± 8 | 0.0 ± 0.2 | 0.4 ± 0.1 | 0.5 ± 0.2 | 0.5 ± 0.2 | −0.1 ± 0.3 | Emax (human GLP-1R [7]): 85 ± 7%; Emax (human GLP-1R [1]): 108 ± 5%; Δlog(τ/KA) βArr1 vs Ca2+ (human GLP-1R [3]): −0.1 ± 0.2; Δlog(τ/KA) βArr1 vs cAMP (human GLP-1R [3]): 0.4 ± 0.1; Δlog(τ/KA) βArr2 vs Ca2+ (human GLP-1R [3]): −0.2 ± 0.2
exendin-4 |  |  |  |  |  |  |  |  |  | bias ERK1/2 phosphorylation over cAMP accumulation, in words (human GLP-1R [8]): does not exhibit bias toward ERK1/2 phosphorylation
CC[C@H](C)[C@H](NC(=O)[C@H](Cc1ccccc1)NC(=O)[C@H](CCC(=O)O)NC(=O)[C@H](CCCCN)NC(=O)[C@H](C)NC(=O)[C@H](C)NC(=O)[C@H](CCC(N)=O)NC(=O)CNC(=O)[C@H](CCC(=O)O)NC(=O)[C@H](CC(C)C)NC(=O)[C@H](Cc1ccc(O)cc1)NC(=O)[C@H](CO)NC(=O)[C@H](CO)NC(=O)C(C)(C)NC(=O)[C@H](CC(=O)O)NC(=O)[C@H](CO)NC(=O)[C@@H](NC(=O)[C@H](Cc1ccccc1)NC(=O)[C@@H](NC(=O)CNC(=O)[C@H](CCC(=O)O)NC(=O)C(C)(C)NC(=O)[C@@H](N)Cc1c[nH]cn1)[C@@H](C)O)[C@@H](C)O)C(=O)N[C@@H](C)C(=O)N[C@@H](Cc1c[nH]c2ccccc12)C(=O)N[C@@H](CC(C)C)C(=O)N[C@H](C(=O)N[C@@H](CCCCN)C(=O)NCC(=O)N[C@@H](CCCNC(=N)N)C(=O)NCC(N)=O)C(C)C [P6] |  |  | 80 ± 7 | 78 ± 5 | 0.5 ± 0.3 | −0.1 ± 0.2 | 0.1 ± 0.2 | −0.1 ± 0.2 | −0.3 ± 0.2 | Emax (human GLP-1R [7]): 72 ± 4%; Emax (human GLP-1R [1]): 82 ± 5%; Δlog(τ/KA) βArr1 vs cAMP (human GLP-1R [3]): 0.4 ± 0.1; Δlog(τ/KA) βArr2 vs Ca2+ (human GLP-1R [3]): 0.0 ± 0.2
CC[C@H](C)[C@H](NC(=O)[C@H](Cc1ccccc1)NC(=O)[C@H](CCC(=O)O)NC(=O)[C@H]1CNC[C@@H]1NC(=O)[C@H](C)NC(=O)[C@H](C)NC(=O)[C@H](CCC(N)=O)NC(=O)[C@H]1CCC[C@@H]1NC(=O)[C@H](CCC(=O)O)NC(=O)[C@H](CC(C)C)NC(=O)[C@H](Cc1ccc(O)cc1)NC(=O)[C@H]1CCC[C@@H]1NC(=O)[C@H](CO)NC(=O)C(C)(C)NC(=O)[C@H](CC(=O)O)NC(=O)[C@H](CO)NC(=O)[C@@H](NC(=O)[C@H](Cc1ccccc1)NC(=O)[C@@H](NC(=O)CNC(=O)[C@H](CCC(=O)O)NC(=O)C(C)(C)NC(=O)[C@@H](N)Cc1c[nH]cn1)[C@@H](C)O)[C@@H](C)O)C(=O)N[C@H]1CCC[C@@H]1C(=O)N[C@@H](Cc1c[nH]c2ccccc12)C(=O)N[C@@H](CC(C)C)C(=O)N[C@H](C(=O)N[C@H]1CNC[C@@H]1C(=O)NCC(=O)N[C@@H](CCCNC(=N)N)C(=O)NCC(N)=O)C(C)C [P4] (H-H[Aib]EGTFTSD[Aib]S[X1]YLE[X1]QAA[X2]EFI[X1]WLV[X2]GRG-NH2) | weak β-arrestin-2 responses; also recorded: no measurable signal | 97 ± 7 | 81 ± 8 | 90 ± 40 |  | −0.2 ± 0.2 |  |  |  | β-arrestin-1 recruitment, result in words (human GLP-1R [7]; FlpInCHO BRET): no measurable signal; further reduction in affinity relative to other α/β-peptides in this set (human GLP-1R [4]): 10 fold
oxyntomodulin (HSQGTFTSDYSKYLDSRRAQDFVQWLMNTKRNRNNIA; Oxyntomodulin; UniProt P01275 53-89, looked up) |  |  |  |  |  |  |  |  |  | bias ERK1/2 phosphorylation over cAMP accumulation, in words (human GLP-1R [8]): biases the GLP-1R toward ERK1/2 phosphorylation over cAMP accumulation
CC[C@H](C)[C@H](NC(=O)[C@H](Cc1ccccc1)NC(=O)[C@H](CCC(=O)O)NC(=O)[C@H]1CNC[C@@H]1NC(=O)[C@H](C)NC(=O)[C@H](C)NC(=O)[C@H](CCC(N)=O)NC(=O)[C@H]1CCC[C@@H]1NC(=O)[C@H](CCC(=O)O)NC(=O)[C@H](CC(C)C)NC(=O)[C@H](Cc1ccc(O)cc1)NC(=O)[C@H]1CCC[C@@H]1NC(=O)[C@H](CO)NC(=O)[C@@H](NC(=O)[C@H](CC(=O)O)NC(=O)[C@H](CO)NC(=O)[C@@H](NC(=O)[C@H](Cc1ccccc1)NC(=O)[C@@H](NC(=O)CNC(=O)[C@H](CCC(=O)O)NC(=O)[C@H](C)NC(=O)[C@@H](N)Cc1c[nH]cn1)[C@@H](C)O)[C@@H](C)O)C(C)C)C(=O)N[C@H]1CCC[C@@H]1C(=O)N[C@@H](Cc1c[nH]c2ccccc12)C(=O)N[C@@H](CC(C)C)C(=O)N[C@H](C(=O)N[C@H]1CNC[C@@H]1C(=O)NCC(=O)N[C@@H](CCCNC(=N)N)C(=O)NCC(N)=O)C(C)C [P3] |  |  |  |  | −0.1 ± 0.3 |  |  | 0.5 ± 0.3 | −0.6 ± 0.2 | 

Now from value to compound, other results behind:

β-arrestin-2 recruitment, result in words (human GLP-1R [1]) | Emax (human GLP-1R [2]) [%] | Emax (human GLP-1R [6]) [%] | Emax (human GLP-1R [5]) [%] | Compound | Δlog(τ/KA) βArr1 vs pERK1/2 (human GLP-1R [3]) | Δlog(τ/KA) Ca2+ vs cAMP (human GLP-1R [3]) | Δlog(τ/KA) pERK1/2 vs cAMP (human GLP-1R [3]) | Δlog(τ/KA) βArr2 vs cAMP (human GLP-1R [3]) | Δlog(τ/KA) βArr2 vs pERK1/2 (human GLP-1R [3]) | other results
weak β-arrestin-2 responses | 107 ± 5 | 73 ± 9 |  | CC[C@H](C)[C@H](NC(=O)[C@H](Cc1ccccc1)NC(=O)[C@H](CCC(=O)O)NC(=O)[C@H]1CNC[C@@H]1NC(=O)[C@H](C)NC(=O)[C@H](C)NC(=O)[C@H](CCC(N)=O)NC(=O)[C@H]1CCC[C@@H]1NC(=O)[C@H](CCC(=O)O)NC(=O)[C@H](CC(C)C)NC(=O)[C@H](Cc1ccc(O)cc1)NC(=O)[C@H]1CCC[C@@H]1NC(=O)[C@H](CO)NC(=O)[C@@H](NC(=O)[C@H](CC(=O)O)NC(=O)[C@H](CO)NC(=O)[C@@H](NC(=O)[C@H](Cc1ccccc1)NC(=O)[C@@H](NC(=O)CNC(=O)[C@H](CCC(=O)O)NC(=O)[C@H](C)NC(=O)[C@@H](N)Cc1c[nH]cn1)[C@@H](C)O)[C@@H](C)O)C(C)C)C(=O)N[C@H]1CCC[C@@H]1C(=O)N[C@@H](Cc1c[nH]c2ccccc12)C(=O)N[C@@H](CC(C)C)C(=O)N[C@H](C(=O)N[C@@H](CCCCN)C(=O)NCC(=O)N[C@@H](CCCNC(=N)N)C(=O)NCC(N)=O)C(C)C [P9] (H-HAEGTFTSDVS[X1]YLE[X1]QAA[X2]EFI[X1]WLVKGRG-NH2) | −0.1 ± 0.5 |  |  |  |  | reduction in affinity relative to GLP-1 (human GLP-1R [4]): ~ 10 fold; calcium mobilization, result in words (human GLP-1R [5]; FlpIn CHO human GLP-1R): essentially abolished calcium mobilization
weak β-arrestin-2 responses | 83 ± 5 | 80 ± 8 |  | CC[C@H](C)[C@H](NC(=O)[C@H](Cc1ccccc1)NC(=O)[C@H](CCC(=O)O)NC(=O)[C@H]1CNC[C@@H]1NC(=O)[C@H](C)NC(=O)[C@H](C)NC(=O)[C@H](CCC(N)=O)NC(=O)[C@H]1CCC[C@@H]1NC(=O)[C@H](CCC(=O)O)NC(=O)[C@H](CC(C)C)NC(=O)[C@H](Cc1ccc(O)cc1)NC(=O)[C@H]1CCC[C@@H]1NC(=O)[C@H](CO)NC(=O)[C@@H](NC(=O)[C@H](CC(=O)O)NC(=O)[C@H](CO)NC(=O)[C@@H](NC(=O)[C@H](Cc1ccccc1)NC(=O)[C@@H](NC(=O)CNC(=O)[C@H](CCC(=O)O)NC(=O)[C@H](C)NC(=O)[C@@H](N)Cc1c[nH]cn1)[C@@H](C)O)[C@@H](C)O)C(C)C)C(=O)N[C@@H](C)C(=O)N[C@@H](Cc1c[nH]c2ccccc12)C(=O)N[C@@H](CC(C)C)C(=O)N[C@H](C(=O)N[C@@H](CCCCN)C(=O)NCC(=O)N[C@@H](CCCNC(=N)N)C(=O)NCC(N)=O)C(C)C [P8] (H-HAEGTFTSDVS[X1]YLE[X1]QAA[X2]EFIAWLVKGRG-NH2) | 0.0 ± 0.3 |  | 0.7 ± 0.3 |  |  | reduction in affinity relative to GLP-1 (human GLP-1R [4]): ~ 10 fold

Reference: PMC5794489 (Biochemical pharmacology, 2017)
